Measurements from US20230158049A1, “COMPOSITIONS AND METHODS FOR TREATING VIRUSES” (University of Virginia Patent Foundation, priority 2020, published 2023).

How the values were obtained:
[1] = biological target: 3C-like main protease (3CLpro) or Nsp5 (Severe acute respiratory syndrome coronavirus 2, UniProt P0DTD1); conditions: computational screening (Wu et al.); cited from earlier work
[2] = four patients, 100 mg twice daily or daily

| SMILES | clinical course on azithromycin before the switch to doxycycline (SARS-CoV-2; Example 4 (case 4): hospital days 1-3, with ceftriaxone) | 3CLpro binding by computational screening [1] | retesting for SARS-CoV-2 (SARS-CoV-2; Example 2: after 3 weeks) | clinical course (fever, symptoms) (SARS-CoV-2; Example 2: person, pulmonary sarcoidosis, doxycycline 100 mg orally twice a day for 10 days) | repeat nasopharyngeal swab testing for SARS-CoV-2 RNA (SARS-CoV-2; Example 3: on 9 May 2020) | lung infiltrates on chest X-ray (SARS-CoV-2; Example 4: after 14 days of doxycycline therapy) | CRP (SARS-CoV-2; Example 4: by day 8 (CRP 13 by day 3, before doxycycline)) | supplemental oxygen requirement (SARS-CoV-2; Example 4: person, doxycycline 100 mg twice daily from hospital day 4, by day 8) | overall clinical outcome of the four patients (SARS-CoV-2; [2]) | progression to severe disease (SARS-CoV-2; [2]) | safety issues with use (SARS-CoV-2; four patients, standard doses for 5 to 14 days) |
| --- | --- | --- | --- | --- | --- | --- | --- | --- | --- | --- | --- |
| CC[C@H]1OC(=O)[C@H](C)[C@@H](O[C@H]2C[C@@](C)(OC)[C@@H](O)[C@H](C)O2)[C@H](C)[C@@H](O[C@@H]2O[C@H](C)C[C@H](N(C)C)[C@H]2O)[C@](C)(O)C[C@@H](C)CN(C)[C@H](C)[C@@H](O)[C@]1(C)O [azithromycin] | several days of worsening | – | – | – | – | – | – | – | – | – | – |
| C[C@H]1c2cccc(O)c2C(=O)C2=C(O)[C@]3(O)C(=O)C(C(N)=O)=C(O)[C@@H](N(C)C)[C@@H]3[C@@H](O)[C@@H]21 [doxycycline] | – | can bind to 3CLpro | negative | Fever resolved and they remained asymptomatic | negative | resolved | 1.0 | no longer required oxygen | All improved | None progressed to severe disease | No safety issues were noted |
